Patent US20240327375A1, “SUBSTITUTED HETEROBICYCLIC DERIVATIVES AS NEGATIVE ALLOSTERIC MODULATORS OF MGLU7 RECEPTOR” (priority 2021, published 2024)
pIC50: −log10 of the molar value.

Test system: not given
Assay: not given
Settings: not given

melting point [°C]	Structure (SMILES)
181 to 184	O=c1c2ccc(-c3cccc(C4CC4)c3)cc2cnn1-c1ccccn1 [1-22, 6-(3-Cyclopropylphenyl)-2-(pyridin-2-yl)phthalazin-1(2H)-one]

Target: T1, human mGlu7 (Homo sapiens, UniProt Q14831)
T1 construct: expressed in transfected cells
T1 sequence (Q14831 35-922 isoform Q14831-2 limits assumed): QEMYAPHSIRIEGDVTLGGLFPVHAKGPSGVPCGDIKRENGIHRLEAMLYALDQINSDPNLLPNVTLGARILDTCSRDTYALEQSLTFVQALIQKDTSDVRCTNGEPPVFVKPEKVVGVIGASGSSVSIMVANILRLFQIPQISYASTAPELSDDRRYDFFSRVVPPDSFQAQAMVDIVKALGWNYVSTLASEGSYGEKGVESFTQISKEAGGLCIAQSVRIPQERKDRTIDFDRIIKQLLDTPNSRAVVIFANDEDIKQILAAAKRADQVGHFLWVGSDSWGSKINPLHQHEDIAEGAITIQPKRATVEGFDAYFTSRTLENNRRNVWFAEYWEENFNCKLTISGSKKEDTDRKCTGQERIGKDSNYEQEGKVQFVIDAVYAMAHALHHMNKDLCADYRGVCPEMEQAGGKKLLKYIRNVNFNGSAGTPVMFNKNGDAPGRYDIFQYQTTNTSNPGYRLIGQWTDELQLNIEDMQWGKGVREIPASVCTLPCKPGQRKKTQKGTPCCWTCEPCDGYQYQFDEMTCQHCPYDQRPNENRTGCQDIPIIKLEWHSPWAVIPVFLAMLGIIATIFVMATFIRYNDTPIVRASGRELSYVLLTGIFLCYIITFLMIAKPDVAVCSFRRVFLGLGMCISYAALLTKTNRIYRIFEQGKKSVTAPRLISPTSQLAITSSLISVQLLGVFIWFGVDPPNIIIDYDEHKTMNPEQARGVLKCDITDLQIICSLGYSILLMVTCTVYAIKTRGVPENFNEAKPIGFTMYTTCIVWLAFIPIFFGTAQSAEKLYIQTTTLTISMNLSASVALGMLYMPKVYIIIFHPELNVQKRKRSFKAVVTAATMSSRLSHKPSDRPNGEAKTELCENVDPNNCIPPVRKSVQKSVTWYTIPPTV
Assay: mGlu7 assay on HEK-expressing human mGlu7: fluorescent cell-based Ca2+ mobilization (FLIPR384), inhibition of EC80 L-AP4 response
Settings: HEK-293 cells expressing hmGlu7, EC80 L-AP4 stimulation; mean of at least three independent experiments in duplicate; read-out: Ca^2+ Flux (mean IC50)
Text: mGlu7 Assay on HEK-Expressing Human mGlu7
The cDNA encoding the human metabotropic glutamate 7 receptor (hmGlu7), (accession number NM_181874.2, NCBI Nucleotide database browser), was subcloned into an expression vector containing also the hygromycin resistance gene. In parallel, the cDNA encoding a G protein allowing redirection of the activation signal to intracellular calcium flux was subcloned into a different expression vector containing also the Puromycin resistance gene. Transfection of both these vectors into HEK293 cells with PolyFect reagent (Qiagen) according to supplier's protocol, and hygromycin and puromycin treatment allowed selection of antibiotic resistant cells which had integrated stably one or more copies of the plasmids. Positive cellular clones expressing hmGlu7 were identified in a functional assay measuring changes in calcium fluxes in response to glutamate and L-AP4 or known mGlu7 orthosteric antagonists.
HEK-293 cells expressing hmGlu7 were maintained in media containing DMEM, Fetal Bovine Serum (10%), Glutamax™ (2 mM), penicillin (100 units/mL), streptomycin (100 μg/mL), geneticin (100 μg/mL) and hygromycin-B (40 μg/mL) and puromycin (1 μg/mL) at 37° C. with 5% CO2 in a humidified atmosphere.
Fluorescent Cell Based- Ca^+ Mobilization Assay Human mGlu7 HEK-293 cells were plated out 24 hours prior to a fluorescent cell-based calcium mobilization assay using FLIPR^384 assay (Molecular Device, Sunnyvale, CA, USA) in black-walled, clear-bottomed, poly-L-ornithine-coated 384-well plates at a density of 25,000 cells/well in a glutamine/glutamate free DMEM medium containing fetal bovine serum (10%), penicillin (100 units/mL), streptomycin (100 μg/mL) and doxycyline (1 μg/ml) at 37° C. with 5% CO2 in a humidified atmosphere.
On the day of the assay, the medium was aspirated and the cells were loaded with a 3 μM solution of Fluo4-AM (LuBioScience, Lucerne, Switzerland) in 0.03% pluronic acid. After 1 hour at 37° C./5% CO2, the non incorporated dye was removed by washing cell plate with the assay buffer. All assays were performed in a pH 7.4 buffered-solution containing 20 mM HEPES, 143 mM NaCl, 6 mM KCl, 1 mM MgSO4, 1 mM CaCl2, 0.125 mM sulfinpyrazone and 0.1% glucose.
After 10 s of basal fluorescence recording, various concentrations of the compounds of the invention were added to the cells. Changes in fluorescence levels were first monitored for 180 s in order to detect any agonist activity of the compounds. Then the cells were stimulated by an EC80 L-AP4 concentration for an additional 110 s in order to measure inhibiting activities of the compounds of the invention. EC80 L-AP4 concentration is the concentration giving 80% of the maximal glutamate response.
The concentration-response curves of L-AP4 or representative compounds of the present invention were generated using the Prism GraphPad software (Graph Pad Inc, San Diego, USA). The curves were fitted to a four-parameter logistic equation: […]
allowing determination of IC50 values.
The Table 3 below represents the mean IC50 obtained from at least three independent experiments of selected molecules performed in duplicate.

Structure (SMILES)	pIC50
COc1cccc(-c2ccc3c(=O)n(-c4ccc(NC(=O)[C@@H]5CCCN5)cn4)ncc3c2)c1C [1-99]	6.00 to 7.00
COc1cccc(-c2ccc3c(=O)n(-c4ncc(N5CCCCC5)cn4)ncc3c2)c1C [1-71]	6.00 to 7.00
COc1cccc(-c2ccc3c(=O)n(-c4ccc(S(C)(=O)=O)cn4)ncc3c2)c1C [1-68]	6.00 to 7.00
Cc1ccc(-c2ccc3c(=O)n(-c4ccncc4)ncc3c2)c(C)c1 [1-18]	6.00 to 7.00
COc1cccc(-c2ccc3c(=O)n(-c4ncccn4)ncc3c2)c1 [1-31]	6.00 to 7.00
CC(=O)c1ccc(-n2ncc3cc(-c4ccc(C)cc4C)ccc3c2=O)cc1 [1-12]	6.00 to 7.00
O=c1c2ccc(-c3cccc(C4CC4)c3)cc2cnn1-c1ccccn1 [1-22, 6-(3-Cyclopropylphenyl)-2-(pyridin-2-yl)phthalazin-1(2H)-one]	6.00 to 7.00
COc1ccc(-c2ccc3c(=O)n(-c4ccccn4)ncc3c2)cc1 [1-17]	6.00 to 7.00
O=c1c2ccc(-c3cccc(N4CCC4)c3)cc2cnn1Cc1ccccc1 [1-20]	6.00 to 7.00
COc1cccc(-c2ccc3c(=O)n(-c4ncc(OC5CNC5)cn4)ncc3c2)c1C [1-69]	6.00 to 7.00
COc1cccc(-c2ccc3c(=O)n(-c4ncc(NCC(C)(C)N(C)C)cn4)ncc3c2)c1C [1-96]	6.00 to 7.00
COc1cccc(-c2ccc3c(=O)n(-c4ncc(N5CCC(N(C)C)C5)cn4)ncc3c2)c1C (centres unmarked) [1-101]	6.00 to 7.00
CCn1ncc2cc(-c3cccc(N4CCCC4)c3)ccc2c1=O [1-13, 2-Ethyl-6-(3-(pyrrolidin-1-yl)phenyl)phthalazin-1(2H)-one]	5.00 to 6.00
COc1cccc(-c2ccc3c(=O)n(-c4ncc(N5CCCC(N(C)C)C5)cn4)ncc3c2)c1C (centres unmarked) [1-103]	6.00 to 7.00
Cc1ccc(-c2ccc3c(=O)n(-c4ncc(N5CCOCC5)cn4)ncc3c2)c(C)c1 [1-81]	6.00 to 7.00
O=c1c2ccc(-c3ccc(F)c(N4CCC4)c3)cc2cnn1-c1ccccn1 [1-51]	5.00 to 6.00
O=c1c2ccc(-c3cccc(OC4CC4)c3Cl)cc2cnn1-c1ncccn1 [1-41]	6.00 to 7.00
O=c1c2ccc(-c3cccc(N4CCC4)c3)cc2cnn1-c1ncc(N2CCC(O)C2)cn1 (centres unmarked) [1-83]	6.00 to 7.00
Cc1ccc(-c2ccc3c(=O)n(-c4ccc(S(C)(=O)=O)cc4)ncc3c2)c(C)c1 [1-8, 6-(2,4-Dimethylphenyl)-2-(4-(methylsulfonyl)phenyl)phthalazin-1(2H)-one]	6.00 to 7.00
COc1ccccc1-n1ncc2cc(-c3cccc(N4CCC4)c3)ccc2c1=O [1-19]	6.00 to 7.00
COc1cccc(-c2ccc3c(=O)n(-c4ncc(N5CCN(C)CC5)cn4)ncc3c2)c1C [1-63]	6.00 to 7.00
O=c1c2ccc(-c3nccc(N4CCC4)n3)cc2cnn1-c1ccccn1 [1-50]	5.00 to 6.00
O=c1c2ccc(-c3cccc(N4CCC4)c3)cc2cnn1-c1ccc(F)cn1 [1-24, 6-(3-(Azetidin-1-yl)phenyl)-2-(5-fluoropyridin-2-yl)phthalazin-1(2H)-one]	6.00 to 7.00
CCn1ncc2cc(-c3ccc(C)cc3C)ccc2c1=O [1-1, 6-(2,4-Dimethylphenyl)-2-ethylphthalazin-1(2H)-one]	6.00 to 7.00

The remaining lines, values ahead:

pIC50	Structure (SMILES)
> 7.00	COc1cccc(-c2ccc3c(=O)n(-c4ncc(NCCN(C)C)cn4)ncc3c2)c1C [1-80]
> 7.00	COc1cccc(-c2ccc3c(=O)n(-c4ncc(NC5CCCC(O)C5)cn4)ncc3c2)c1C (centres unmarked) [1-75]
> 7.00	COCCNc1cnc(-n2ncc3cc(-c4cccc(OC)c4C)ccc3c2=O)nc1 [1-79]
> 7.00	COc1cccc(-c2ccc3c(=O)n(-c4ncc(N5CCC(O)CC5)cn4)ncc3c2)c1C [1-72]
> 7.00	Cc1ccc(-c2ccc3c(=O)n(-c4ncc(N5CCC(O)C5)cn4)ncc3c2)c(C)c1 (centres unmarked) [1-82]
> 7.00	COc1cccc(-c2ccc3c(=O)n(-c4ncccc4F)ncc3c2)c1C [1-58]
> 7.00	COCC(C)(C)Nc1cnc(-n2ncc3cc(-c4cccc(OC)c4C)ccc3c2=O)nc1 [1-109]
> 7.00	COc1cnc(-n2ncc3cc(-c4cccc(OC)c4C)ccc3c2=O)nc1 [1-55]
> 7.00	Cc1cnc(-n2ncc3cc(-c4cccc5c4CCN5C)ccc3c2=O)nc1 [1-56]
> 7.00	COc1cccc(-c2ccc3c(=O)n(-c4ncc(C)cn4)ncc3c2)c1C [1-54]
> 7.00	CN1CCCc2c(-c3ccc4c(=O)n(-c5ccccn5)ncc4c3)cccc21 [1-61]
> 7.00	COc1cccc(-c2ccc3c(=O)n(-c4ncc(NCCn5ccnc5)cn4)ncc3c2)c1C [1-97]
> 7.00	CCOc1cnc(-n2ncc3cc(-c4cccc(OC)c4C)ccc3c2=O)nc1 [1-85]
> 7.00	O=c1c2ccc(-c3cccc(N4CCC4)c3)cc2cnn1-c1ncccn1 [1-46]
> 7.00	O=c1c2ccc(-c3cccc(OC(F)F)c3)cc2cnn1-c1ccccn1 [1-38]
> 7.00	CCn1ncc2cc(-c3cccc(N4CCC4)c3)ccc2c1=O [1-11, 6-(3-(Azetidin-1-yl)phenyl)-2-ethylphthalazin-1(2H)-one]
